Measured values as given in patent US5736557A, “N,N-bis (quinolin-4-yl)-diamine derivatives, their preparation and their use as antimalarials” (Hoffman-La Roche, Inc., priority 1994, dated 1998).
In brackets after ≈: the same amount, converted by molar mass. Read-outs that look alike come from different tables or passages of the source.

Experiments:
[1] = test system: chloroquine-sensitive strains of the human-pathogenenic Plasmodium falciparum; experiment: Growth inhibition of chloroquine-sensitive Plasmodium falciparum strains in vitro; type: cell-based; details: read-out: IC50 growth inhibition
Protocol: (§1) Test Method for the Determination of the Activity Against Plasmodium falciparum in vitro
(§2) The preparations are tested on intraerythrocytary stages of Plasmodium falciparum from asynchronous cultures according to the method of Desjardin et al. (Desjardins, R. E. et al: Quantitative assessment of antimalarial activity in vitro by a semiautomated microdilution technique. Antimicrob. Agents Chemother. 16, 710-718, (1979)).
(§3) The culture medium consists of RPMI 1640 with the addition of 25 mM HEPES, 25 mM NaHCO3, 100 μg/ml neomycin and […] (A^+). Human-A^+ erythrocytes are used as the Plasmodium falciparum host cells. The parasites are maintained at 37° C. in an atmosphere of 3% O2, 4% CO2, 9:3% N2 and 95% relative humidity.
(§4) In order to determine the activity, the preparations are dissolved in dimethyl sulphoxide, pre-diluted in the culture medium to a suitable starting concentration and subsequently titrated-out on to microtitre plates in the 2nd stage over 6-7 steps. After the addition of the parasite culture (0.7% parasitemia in 2.5% erythrocyte suspension) the test plates are incubated under the conditions given above for 48 h-72 h. The parasite growth in the different preparation concentrations is determined using [G--^3 H]-hypoxanthin incorporation compared to untreated control cultures on the same test plates. The 50% growth inhibition (IC50) is calculated according to logit regression analysis from the resulting dosage-activity curve.
(§5) The preparations are tested on at least one chloroquine-resistant and one chloroquine-sensitive Plasmodium falciparum strain. Additional sensitive and resistant strains are included for futher characterization.

[2] = test system: chloroquine-resistant strains of the human-pathogenic Plasmodium falciparum; experiment: Growth inhibition of chloroquine-resistant Plasmodium falciparum strains in vitro; type: cell-based; details: for IC50: Plasmodium falciparum; for Resistance index: ratio of average IC50 values for resistant strains and average values for sensitive strains
Protocol: as §1, §2, §3, §4, §5

[3] = test system: Plasmodium berghei; experiment: Activity against Plasmodium berghei in vivo in mice; design: species or system Plasmodium berghei (strain ANKA) in mice; details: percentage parasitemia reduction, mice
Protocol: Test Method for the Determination of the Activity Against Plasmodium berghei in vivo
The preparations are tested on mice infected with malaria pathogens (Plasmodium berghei). Male albino mice (IBM:MORO(SPF), FUELLINSDORF) weighing about 25 g are used as the test animals. They are kept in climatized rooms at 21°-22° C. in groups of 5 animals per cage. They receive ad libitum a diet feed with a low PABA content (NAFAG FUTTER .COPYRGT. No. 9009 PAB-45, PABA content 45 mg/kg) and drinking water. On the first day of the test (DO) the test animals are infected with Plasmodium berghei (strain ANKA). For this there is used heparinized blood of a donor mouse with about 30% parasitemia, which is diluted with physiological saline such that it contains 10^8 parasitized erythrocytes per ml. 0.2 ml of this suspension is injected intravenously (i.v.) into the mice to be treated and into the control mice. In untreated control animals the parasitemia normally reaches 30-40% on the third day after the infection (D+3) and the test animals die between days +5 and +7.
The substances to be tested are dissolved or suspended in distilled water or in a mixture of 7% Tween 80, 3% alcohol (96%) and water. Usually, 0.25 ml of this solution or suspension is administered once subcutaneously and perorally to groups of 5 test animals. Treatment is effected 24 hours after the infection. 10 control animals are treated in the same manner with solvent or suspension medium per test.
All substances are tested in a first test in a single dosage of 10 mg/kg. Only those substances which in this test (10 mg/kg) have shown a parasitaemia reduction of 90% are used for the titration. Suitable dilutions of the test substance can be used to obtain an accurate titration of the activity.
48 hours after the treatment (D+3) blood smears are prepared from all animals using blood from tail veins and are stained with giemsa. The average erythrocyte infection rate (parasitemiea in %) in the control groups as well as in the groups which have been treated with the test compounds is determined by counting under a microscope. The difference in the average values of the infection rates of control group (100%) and treated groups is calculated and expressed as a percentage reduction (GI%). The ED50 or ED90 is determined mathematically by means of the JMP programme (nonlinear fit). The ED50 (ED90) in mg/kg is that dose which after single administration reduces the average erythrocyte infection rate by 50% (90%) in comparison to the control group.

[4] = HB3, strain HB3, chloroquine-sensitive
[5] = NF54, strain NF54, chloroquine-sensitive
[6] = strain FCH5C2, chloroquine-sensitive
[7] = strain RFMEF3, chloroquine-sensitive
[8] = strain Ro73, chloroquine-sensitive
[9] = read-out: IC50 growth inhibition, strain 7G8, chloroquine-resistant
[10] = read-out: IC50 growth inhibition, strain Indo, chloroquine-resistant
[11] = read-out: IC50 growth inhibition, strain ItG2F6, chloroquine-resistant
[12] = read-out: IC50 growth inhibition, strain K1, chloroquine-resistant
[13] = read-out: IC50 growth inhibition, strain RFCF3, chloroquine-resistant
[14] = read-out: IC50 growth inhibition, strain W2, chloroquine-resistant
[15] = read-out: IC50 growth inhibition, strain W2 Mef, chloroquine-resistant
[16] = po, single peroral dose 10 mg/kg, read-out: GI % at 10 mg/kg po
[17] = sc, single subcutaneous dose 10 mg/kg, read-out: GI % at 10 mg/kg sc

Row | Compound | IC50 [1, 4] [µg/mL] | IC50 [1, 5] [µg/mL] | IC50 [1, 6] [µg/mL] | IC50 [1, 7] [µg/mL] | IC50 [1, 8] [µg/mL] | IC50 [2, 9] [µg/mL] | IC50 [2, 10] [µg/mL] | IC50 [2, 11] [µg/mL] | IC50 [2, 12] [µg/mL] | IC50 [2, 13] [µg/mL] | IC50 [2, 14] [µg/mL] | IC50 [2, 15] [µg/mL] | Resistance index [2] | inhibition in vivo at 10 mg/kg [3, 16] [%] | inhibition in vivo at 10 mg/kg [3, 17] [%]
1 | Clc1ccc2c(Nc3cccc(Nc4ccnc5cc(Cl)ccc45)c3)ccnc2c1 [Example 9, N,N'-Bis-(7-Chloroquinolin-4-yl)-phenylene-1,3-diamine] | 0.0095 (≈ 0.022 µM) | 0.0237 (≈ 0.0549 µM) | 0.0156 (≈ 0.0362 µM) | 0.0108 (≈ 0.025 µM) | 0.0104 (≈ 0.0241 µM) | 0.0171 (≈ 0.0396 µM) | 0.0077 (≈ 0.0179 µM) | 0.0129 (≈ 0.0299 µM) | 0.0171 (≈ 0.0396 µM) | 0.0125 (≈ 0.029 µM) | 0.0121 (≈ 0.0281 µM) | 0.0121 (≈ 0.0281 µM) | 0.9 | 86 | 83
2 | Clc1ccc2c(NCC3CCCC(CNc4ccnc5cc(Cl)ccc45)C3)ccnc2c1 (stereo not drawn) [Example 11, (7-Chloroquinolin-4-yl)-[3-(7-chloroquinolin-4-yl-aminomethyl)-cyclohexylmethyl]-amine] | 0.0127 (≈ 0.0273 µM) | 0.0172 (≈ 0.037 µM) | 0.0145 (≈ 0.0312 µM) | 0.0168 (≈ 0.0361 µM) | 0.0049 (≈ 0.0105 µM) | 0.0205 (≈ 0.044 µM) | 0.0144 (≈ 0.0309 µM) | 0.0116 (≈ 0.0249 µM) | 0.0178 (≈ 0.0382 µM) | 0.0141 (≈ 0.0303 µM) | 0.0099 (≈ 0.0213 µM) | 0.0159 (≈ 0.0342 µM) | 1.1 | 28 | 99.6
